Structures can show the parent of a compound that is named as a salt.

The subject of experiment [1] is Wfs1^ΔExon8 mice. The experiment in a line: Spontaneous alternation in the Y-maze (spatial working memory). Particulars: male Wfs1^ΔExon8 mice; PRE-084 0.3 mg/kg ip (legend b25; b84 says 1 mg/Kg) 30 min before the Y-maze session; Fig. 2. The class given is in vivo. The source says: (§1) Drugs and administration procedures: 2-(4-morpholinethyl)-1-phenylcyclohexanecarboxylate hydrochloride (PRE-084) was from Sigma-Aldrich (Saint-Quentin-Fallavier, France). […]
Spontaneous alternation in the Y-maze: The test assesses spatial working memory. The maze was made of grey polyvinylchloride. Each arm was 40 cm long, 13 cm high, 3 cm wide at the bottom, 10 cm wide at the top, and converging at an equal angle. Each mouse was placed at the end of one arm and allowed to move freely through the maze during an 8 min session. The series of arm entries, including possible returns into the same arm, was recorded visually. An alternation was defined as entries into all three arms on consecutive occasions. The number of maximum alternations was therefore the total number of arm entries minus two and the percentage of alternation was calculated as (actual alternations/maximum alternations) × 100. […] Thirteen animals were discarded accordingly corresponding to 26% attrition. […]

Experiment [2] relates to Wfs1^ΔExon8 mice. Kind of experiment: Object recognition test (short-term recognition memory). Particulars: male Wfs1^ΔExon8 mice. The class given is in vivo.
Text: as §1
Object recognition test: The test measures short-term recognition memory. The apparatus consisted in four squared open-fields (50 cm × 50 cm × 50 cm high) made in white Plexiglas and placed on a floor equipped with infrared (IR) light emitting diodes. The locomotor activity of the animal and position of their nose could be captured through an IR-sensitive camera and analyzed using the Videotrack® and Nosetrack® softwares (Viewpoint). Session 1: animals were allowed to acclimate during 10 min to the open-field. The mouse locomotion was analyzed by videotracking. […] Each mouse was placed in the open-field and the exploratory activity and nose position was recorded during 10 min. The activity was analyzed by videotracking in terms of number of contacts with the objects and duration of contacts. […] Each mouse was placed again in the open-field and the exploratory activity recorded during 10 min. The activity was analyzed similarly. The preferential exploration index was calculated as the ratio of the number of contacts with the object in position 2 over the total number of contacts with the two objects. […]

In experiment [3] the test system is Wfs1^ΔExon8 mice. Kind of experiment: Place learning in the water-maze (spatial reference memory). The class given is in vivo. Here is the method:
as §1
Place learning in the water-maze: Spatial reference memory was analyzed using a water-maze procedure. A transparent Plexiglas non-slippery platform (Ø 10 cm) was immersed in a circular pool (Ø 140 cm, height 40 cm), under the water surface during acquisition. The water temperature, 23 ± 1°C, light intensity, external cues in the room, and water opacity were rigorously reproduced. Swimming was videotracked (Viewpoint), with trajectories being analyzed as latencies and distances. The software divided the pool into four quadrants. Training consisted in three swims per day for 6 days, with 15 min intertrial-time interval. Start positions, set at each limit between quadrants, were randomly selected and each mouse was allowed a 90 s swim to find the platform, initially placed in the NE quadrant. […] The median latency and swim path length were calculated for each training day. Acquisition slopes were also calculated individually over the acquisition period. Forty-eight hours after the last swim, on day 7, a probe test was performed during which the platform was removed and each animal allowed a free 60 s swim. The time spent in the training (T) quadrant and the average of time spent in the 3 others (o) were determined. On days 8, mice were re-tested in the water-maze for assessing visual ability and non-spatial learning. They were submitted to the acquisition of a visible platform placed in a new location, with training consisting in three swims per day with 15 min intertrial-time interval. Swimming was analyzed as latencies. No exclusion criterion has been set in this test.

The test system of experiment [4] is Wfs1^ΔExon8 mice. Kind of experiment: Step-through type passive avoidance test (non-spatial long-term memory). The class given is in vivo. The note with it: male Wfs1^ΔExon8 mice, 0.3 mg/kg ip 30 min before training, retention.
Text: as §1
Step-through type passive avoidance test: The test measures non-spatial long-term memory. The apparatus is a two-compartments (15 × 20 × 15 cm high) box with one illuminated with white polyvinylchloride walls and the other darkened with black polyvinylchloride walls and a grid floor. A guillotine door separates each compartment. A 60 W lamp positioned 40 cm above the apparatus lights up the white compartment during the experiment. Scrambled foot shocks (0.3 mA for 3 s) could be delivered to the grid floor using a shock generator scrambler (Lafayette Instruments, Lafayette, USA). The guillotine door was initially closed during the training session. Each mouse was placed into the white compartment. After 5 s, the door was raised. […] The step-through latency, that is, the latency spent to enter the darkened compartment, and the shock sensitivity (estimated as 0 = no reaction, 1 = flinching reactions, 2 = flinchings and vocalizations) were recorded. […] The step-through latency and escape latency (corresponding to the time spent to exit the dark compartment) were recorded up to 300 s each. […]

Experiment [5] concerns Wfs1^ΔExon8 mice. The experiment in a line: Black-and-white exploration box test (anxiety). Particulars: female Wfs1^ΔExon8 mice, 0.3 mg/kg ip 30 min before. The class given is in vivo.
Text: as §1
Black-and-white exploration box test: Anxiety level of WFS1 KO mice was first examined using the black-and-white exploration box. It consisted of two adjacent compartments (23 × 16 × 10 cm^3) separated by a small opening (6 × 6 cm^2). The light compartment is brightly lit from above and covered with a transparent lid, and the dark compartment is covered with a black lid. Mice were placed in the light box, and exploration measured during 10 min by IR videotracking (Viewpoint). The time spent in each compartment and number of crossings among compartments were recorded. The time in the light compartment per visit was calculated. […] Seven animals were discarded accordingly corresponding to 14% attrition.
(§2) Experimental series: For phenotyping, animals were tested in series in the different behavioral tests assessing activity, learning and memory or anxiety, finishing with the most stressful procedures: (1) open-field (1 day), (2) spontaneous alternation (1 day), (3) object recognition (2 days), (4) place learning in the water-maze water-maze (5+2 days), (5) passive avoidance (2 days), (6) elevated plus-maze (1 day), and (7) black-and-white box exploration (1 day), in that order and over 16 days. For PRE-084 treatment experiments, animals were tested in series on a limited number of tests: spontaneous alternation (1 day), object recognition (2 days) and passive avoidance (2 days) for males, elevated plus-maze (1 day) and black-and-white box (1 day) for females.

The subject of experiment [6] is Wfs1^ΔExon8 mice. The experiment in a line: Elevated plus-maze test (anxiety). The class given is in vivo. Particulars: female Wfs1^ΔExon8 mice, 0.3 mg/kg ip 30 min before.
Text: as §1
Elevated plus-maze test: The apparatus consisted of two open arms (24 × 8 cm^2), in white PVC, and two enclosed arms (24 × 8 × 20 cm^3), in dark grey PVC. The arms extended from a central platform (8 × 8 cm), and the maze was elevated to a height of 50 cm above the floor. Each mouse was placed at the centre of the plus-maze and its exploration behaviour was recorded during 10 min. The time spent and numbers of entries into the enclosed or open arms were recorded. Results were expressed as total number of entries into the arms, time spent in the open arms, time spent per visit in the open arms.
as §2

A further experiment deals with Wfs1ab^KO larvae. The experiment in a line: Visual Motor Response (VMR), locomotor activity of larvae during light OFF periods. The class given is in vivo, zebrafish. Particulars: Fig. 9. On the procedure: Zebrafish Generation: All experiments were performed in accordance with the 2010/63/EU Directive and the ARRIVE guidelines. Zebrafish were purchased at the KIT - European Zebrafish Resource Center. Heterozygous Wfs1a^C799X and Wfs1b^W493X mutant line were maintained in an automated fish tank system (ZebTEC, Tecniplast) at 28°C, pH 7, conductivity around 500 µS and with a 14h:10h light:dark cycle. They were fed with standard diet. Heterozygous Wfs1a^C799X/+ zebrafish were crossed to generate wild-type (Wfs1a^WT) and homozygous mutant Wfs1a^C799X zebrafish (Wfs1a^C799X), which became progenitors in order to generate future generations for the experiments. […]
Visual Motor Response (VMR): The VMR assay quantifies the locomotor activity of zebrafish larvae to light changes using infrared tracking system. […] At 5-dpf, the locomotor behavior of larvae was monitored by using an automated videotracking device (Zebrabox®, ViewPoint) by employing a DinionXF 1/3-inch Monochrome camera (model BFLY-PGE-13H2M, FLIR) fitted with a fixed-angle megapixel lens (SR5014MP-5C, SEIKO Optical). […] The floor of the box emitted by a light-controlling unit a white light (69-83 µW/cm2 measured at 495 λ). The response to stimuli was recorded by an infra-red (IR) camera (25 frames/s) under IR light illumination at 850 nm, which the animals could not perceive. […] The distance covered was measured in mm/s. […]

For the molecule `O=C(OCCN1CCOCC1)C1(c2ccccc2)CCCCC1` [PRE-084, 2-(4-morpholinethyl)-1-phenylcyclohexanecarboxylate hydrochloride], the spontaneous alternation result in the experiment with Wfs1^ΔExon8 mice [1] was “very significant recovery of spontaneous alternation”. The “object exploration during session 2” value in the experiment with Wfs1^ΔExon8 mice [2] (0.3 mg/kg ip 30 min before session with two identical objects, Fig. 3a) was “failed to affect object exploration”. In the experiment with Wfs1^ΔExon8 mice [2] (0.3 mg/kg ip, Fig. 3b), the “exploration for the novel object in session 3” value is listed as “attenuated the deficit of exploration for the novel object”. Further, the acquisition slopes result with Wfs1^ΔExon8 mice [3] (male Wfs1^ΔExon8 mice, compared to V-treated Wfs1^WT mice, Fig. 4c) is “only vehicle (V)-treated Wfs1^ΔExon8 mice showed a statistically significant decrease”. In addition, in the experiment on Wfs1^ΔExon8 mice [3] (male Wfs1^ΔExon8 mice, daily injection 0.3 mg/kg ip 30 min before 1st swim of each training trial, Fig. 4b), the “delay in acquisition / swimming latencies” value is “prevented this delay and significantly decreased swimming latencies during the two last trials”. Also, in the experiment on Wfs1^ΔExon8 mice [3] (male mice, 60-s swim without platform, Fig. 4d), the “probe test, exploration of the T quadrant” value is “no impact of the PRE-084 was noted”. In addition, the escape latency entry in the experiment with Wfs1^ΔExon8 mice [4] (Fig. 5b) was “significantly reduced”. Also, the step-through latency deficit result in the experiment with Wfs1^ΔExon8 mice [4] (compared to V-treated Wfs1^WT mice, Fig. 5a) is “very significant for V-treated Wfs1^ΔExon8 mice but not for PRE-084-treated Wfs1^ΔExon8 mice”. For the same molecule, the number of crossing result in the experiment with Wfs1^ΔExon8 mice [5] (Fig. 6a) was “slightly reduced”. For the same molecule, the “time spent in the light compartment” value in the experiment with Wfs1^ΔExon8 mice [5] (Fig. 6b) is listed as “increased up to the levels of Wfs1^WT mice”. For the same molecule, the “time per visit (light compartment)” value in the experiment with Wfs1^ΔExon8 mice [5] (Fig. 6c) is “increased up to the levels of Wfs1^WT mice”. Further, in the experiment with Wfs1^ΔExon8 mice [6] (Fig. 7a), the “maze exploration (total number of arm entries)” value is recorded as “no impact was noted”. In the experiment with Wfs1^ΔExon8 mice [6] (Fig. 7b), the “time spent in open arms” value is “slightly increased”. In addition, the “time per visit in open arms” value in the experiment on Wfs1^ΔExon8 mice [6] (Fig. 7c) is recorded as “significantly increased”. In addition, the hyperlocomotor response entry in the experiment on Wfs1ab^KO larvae (at 3 and 10 µM in the bath) is reported as “down to the WT line mobility”; in the experiment on Wfs1ab^KO larvae (between 0.1 and 10 µM in the bath, 4 dpf to 5 dpf), “concentration-dependent decrease of the hyperlocomotor response”.

The record behind these values is patent publication EP4124338A1, “SIGMA-1 RECEPTOR ACTIVATOR FOR USE IN THE TREATMENT OF A PATHOLOGY ASSOCIATED WITH WFS1 MUTATION” (Université de Montpellier, priority 2021, dated 2023).
